Assay results from patent US11554124B2, “Hematopoiesis-enhancing agent” (priority 2018, dated 2023).

Tested on: bone marrow erythroblasts
Assay: Flow cytometry of bone marrow cells / erythroblast subsets (Ter119/CD71 double staining) of treated mice
Assay type: in vivo, mouse
Experimental: Wild-type mice with a genetic background of C57BL/6J were purchased from Charles River Laboratories, Inc. Mice at 8 to 14 weeks of age were used for analysis. For CLEU treatment (50 mg/body), a solution of cycloleucine (CLEU) was prepared by diluting cycloleucine (CLEU) (Sigma) in PBS (50 mg/ml), and 1 ml of the CLEU solution was administered intraperitoneally. For AKBA treatment (2 mg/body), 2 mg AKBA (Enzo Life Sciences)/20% DMSO/1 mL PBS solution was administered intraperitoneally. Vehicle without AKBA was used as a control. For measuring complete blood count of peripheral blood, peripheral blood was collected from facial veins and counted by use of an automated animal blood cell counter (microsemi LC-662). All of the experiments conducted in this study were approved by the Animal Experiment Committee of the Environmental Safety Committee of Tohoku University.
BM cells and spleen cells were harvested in a conventional manner. Cells were stained with combinations of antibodies specific to erythroblasts and mature cells, to thereby identify them. The cells were visualized with antibody and streptavidin-peridinin chlorophyll protein-cyanin 5.5. The antibodies used in this study were as follows: anti-CD3e (145-2C11), anti-CD4 (GK1.5 or RM4.5), anti-CD8a (53-6.7), anti-Gr-1 (RB6-8C5), anti-B220 (RA3-6B2), anti-Ter-119 (TER-119), anti-CD71 (R17217 or C2). Cells were stained with […] (Sigma), and dead cells were excluded from analysis. Flow cytometric analysis and cell sorting were performed according to the manufacturer's protocol using FACS AriaII (BD), and then the obtained data were analyzed using FlowJo software (TreeStar).
Additionally, MAT inhibitor PF9366 (PF) was administered to mice and the effect thereof was investigated. Vehicle (DMSO) (control (Ctrl)) or 10 mM PF9366 (prepared at a concentration of 40 μl/40 ml water) was provided in a drinking bottle (0 h). In addition, 80 μl of vehicle (DMSO) or 80 μl of 10 mM PF9366 dissolved in 1 ml PBS was also administered intraperitoneally at 0 h and 24 h. Analysis was carried out at Day 2 (48 h).
MAT inhibitor 3-acetyl-11-keto-β-boswellic acid (AKBA; 2 mg/body) was intraperitoneally administered to mice at 0 and 24 hours, and analyzed after 48 hours.

[1] = PF9366 in drinking water plus i.p. at 0 h and 24 h, Day 2 (48 h), vs DMSO

| SMILES | subset from which the increase of erythroblast was initiated (PF9366 10 mM: 40 μl/40 ml drinking water plus 80 μl in 1 ml PBS i.p. at 0 h and 24 h, Day 2 (48 h), vs DMSO) | erythroblast maturation index [1] | maturation of erythroblasts [1] | maturation of erythroblasts (AKBA 2 mg/body i.p. at 0 and 24 hours, analyzed after 48 hours, Ter119/CD71 double staining, vs vehicle) |
| --- | --- | --- | --- | --- |
| CN(C)CCc1nnc2cc(-c3ccccc3)c3cc(Cl)ccc3n12 [PF9366, 2-(7-chloro-5-phenyl-[1,2,4]triazolo[4,3-a]quinolin-1-yl)-N,N-dimethylethan-1-amine] | initiated from subset III | significant difference | significantly up-regulated |  |
| CC(=O)O[C@@H]1CC[C@@]2(C)[C@@H](CC[C@]3(C)[C@@H]2C(=O)C=C2[C@@H]4[C@@H](C)[C@H](C)CC[C@]4(C)CC[C@]23C)[C@@]1(C)C(=O)O [AKBA, 3-acetyl-11-keto-β-boswellic acid] |  |  |  | significantly up-regulated |
